The values below come from patent US12577231B2, “Androgen receptor PROTACS” (GlaxoSmithKline Intellectual Property Development Limited, priority 2023, dated 2026).

Where only a bound is given, the exact number is not on record here.

Usually Dmax stands for the greatest extent of degradation seen. A higher Dmax goes with a fuller loss of target.

The target of one assay is T1, Androgen Receptor, LNCaP (AR T878A) (Homo sapiens, UniProt P10275, T878A).
T1 construct: endogenous in cells; host or cells: LNCaP
T1 sequence (P10275 1-920 T878A): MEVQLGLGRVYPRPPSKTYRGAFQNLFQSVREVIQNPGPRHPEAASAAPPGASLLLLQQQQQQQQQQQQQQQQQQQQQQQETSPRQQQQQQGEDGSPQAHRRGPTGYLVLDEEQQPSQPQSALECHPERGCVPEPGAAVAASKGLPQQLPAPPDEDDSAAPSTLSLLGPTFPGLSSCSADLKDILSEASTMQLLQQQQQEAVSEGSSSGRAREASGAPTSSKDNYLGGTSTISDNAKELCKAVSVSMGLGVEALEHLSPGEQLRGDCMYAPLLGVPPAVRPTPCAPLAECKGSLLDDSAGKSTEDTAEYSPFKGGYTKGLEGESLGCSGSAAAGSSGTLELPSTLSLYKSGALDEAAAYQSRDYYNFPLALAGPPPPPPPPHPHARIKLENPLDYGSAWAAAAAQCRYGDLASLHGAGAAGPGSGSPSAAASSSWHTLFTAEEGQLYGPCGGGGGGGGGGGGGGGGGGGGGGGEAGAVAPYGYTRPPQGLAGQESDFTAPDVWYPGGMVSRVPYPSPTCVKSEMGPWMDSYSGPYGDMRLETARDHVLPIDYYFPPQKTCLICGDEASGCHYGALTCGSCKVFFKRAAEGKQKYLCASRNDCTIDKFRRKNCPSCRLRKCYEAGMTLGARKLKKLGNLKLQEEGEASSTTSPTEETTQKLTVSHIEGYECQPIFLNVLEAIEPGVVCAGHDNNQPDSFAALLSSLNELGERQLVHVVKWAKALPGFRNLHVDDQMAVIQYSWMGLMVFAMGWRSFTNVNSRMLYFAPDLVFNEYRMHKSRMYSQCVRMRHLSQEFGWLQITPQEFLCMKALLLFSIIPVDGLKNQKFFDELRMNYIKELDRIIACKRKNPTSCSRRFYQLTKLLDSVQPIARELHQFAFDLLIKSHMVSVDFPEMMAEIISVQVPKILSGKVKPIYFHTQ
Put plainly: Androgen Receptor Degradation-Imaging Assay, LNCaP cell line. The class given is cell-based. Conditions: 16 hours treatment, maximum observed degradation. The procedure:
(§1) Degradation of Androgen Receptor (AR) protein in human prostate cancer cell lines (MDA-PCa-2b (AR T878A/L702H), LNCaP (AR T878A), VCaP (AR wild type and amplified) 22RV1 (AR H875Y) and PC3 (AR negative control)) treated with AR PROTACs was quantified using immunofluorescence. Prostate cancer cells were plated (MDA-PCa-2b, and VCaP 16,000 cells/well; LNCaP and 22RV1 32,000 cells/well, and PC3 8,000 cells/well) in an optical bottom 96-well cell culture plate and allowed to attach overnight. The prostate cancer cell lines were treated for 16 hours with a 10-point 3-fold dilution series (dose range=0.02 nM to 333 nM). PC3 is included as an AR negative control and not treated with compound. Cells are fixed and permeabilized with 4% formaldehyde, blocked with 10% goat serum in immunofluorescence (IF) buffer (130 mM NaCl, 7 mM Na2HPO4, 3.5 mM NaH2PO4, 7.7 mM NaN3, 0.1% BSA, 0.2% Triton X, 0.05% Tween 20) prior to overnight incubation with rabbit antibody specific for C terminus of AR (commercially available from RevMaB Biosciences). Following washes with IF buffer, cells were incubated with fluorescent secondary antibody (Goat anti-rabbit Alexa 647; commercially available from Invitrogen) and Hoechst nuclear stain (commercially available from Themo Scientific) prior to quantification of nuclear AR levels via Opera Phenix high-content fluorescent imager using a 40× water objective. Image analysis was performed with Harmony software.
The averaged nuclear Alexa 647 median fluorescence intensity (MFI) of PC3 cells is subtracted from the nuclear Alexa 647 MFI of PROTAC treated and DMSO control treated cells. % AR remaining is calculated for PROTAC treatments as a percent of the DMSO control (MFI PROTAC treated/MFI DMSO control treated)*100). DC50 and the Dmax values, were obtained from these normalised values fitted with a 4-parameter sigmoidal response curve (Xlfit software). The DC50 is the interpolated concentration of PROTAC corresponding to 50% of the protein being degraded, and the Dmax parameter is the maximum experimentally observed degradation.
The molecule `CC1(C)[C@H](NC(=O)c2ccc(N3CCC(CN4CCC(n5ncc6c(N7CCC(=O)NC7=O)cccc65)CC4)CC3)c(F)c2)C(C)(C)[C@H]1Oc1ccc(C#N)c2ncccc12` [Example 6, N-((1r,3r)-3-((8-Cyanoquinolin-5-yl)oxy)-2,2,4,4-tetramethylcyclobutyl)-4-(4-((4-(4-(2,4-dioxotetrahydropyrimidin-1(2H)-yl)-1H-indazol-1-yl)piperidin-1-yl)methyl)piperidin-1-yl)-3-fluorobenzamide] showed a Dmax of no less than 80%.
On the same count and under the same terms, to `CC1(C)[C@H](NC(=O)c2ccc(N3CCC(CN4CCC(n5ncc6c(N7CCC(=O)NC7=O)cccc65)CC4)CC3)c(F)c2)C(C)(C)[C@H]1Oc1ccc(C#N)c2c1CCCO2` [Example 8, N-((1r,3r)-3-((8-Cyanochroman-5-yl)oxy)-2,2,4,4-tetramethylcyclobutyl)-4-(4-((4-(4-(2,4-dioxotetrahydropyrimidin-1(2H)-yl)-1H-indazol-1-yl)piperidin-1-yl)methyl)piperidin-1-yl)-3-fluorobenzamide] belongs no less than 80%; to `COc1cc(O[C@H]2C(C)(C)[C@H](NC(=O)c3ccc(N4CCC(CN5CCC(n6ncc7c(N8CCC(=O)NC8=O)cccc76)CC5)CC4)cc3)C2(C)C)ccc1C#N` [Example 15, N-((1r,3r)-3-(4-Cyano-3-methoxyphenoxy)-2,2,4,4-tetramethylcyclobutyl)-4-(4-((4-(4-(2,4-dioxotetrahydropyrimidin-1(2H)-yl)-1H-indazol-1-yl)piperidin-1-yl)methyl)piperidin-1-yl)benzamide], no less than 80%; to `COc1cc(O[C@H]2C(C)(C)[C@H](NC(=O)c3ccc(N4CCC(CN5CCC(n6ccc7c(N8CCC(=O)NC8=O)cccc76)CC5)CC4)cc3)C2(C)C)ccc1C#N` [Example 16, N-((1r,3r)-3-(4-Cyano-3-methoxyphenoxy)-2,2,4,4-tetramethylcyclobutyl)-4-(4-((4-(4-(2,4-dioxotetrahydropyrimidin-1(2H)-yl)-1H-indol-1-yl)piperidin-1-yl)methyl)piperidin-1-yl)benzamide], no less than 80%.
Still for that read-out and setting: to `COc1cc(O[C@H]2C(C)(C)[C@H](NC(=O)c3ccc(N4CCC(CN5CCC(n6ncc7c(N8CCC(=O)NC8=O)nccc76)CC5)CC4)c(F)c3)C2(C)C)ccc1C#N` [Example 20, N-((1r,3r)-3-(4-Cyano-3-methoxyphenoxy)-2,2,4,4-tetramethylcyclobutyl)-4-(4-((4-(4-(2,4-dioxotetrahydropyrimidin-1(2H)-yl)-1H-pyrazolo[4,3-c]pyridin-1-yl)piperidin-1-yl)methyl)piperidin-1-yl)-3-fluorobenzamide] belongs no less than 80%.
The same measure, in the same setting: to `CC1(C)[C@H](NC(=O)c2ccc(N3CCC(CN4CCC(n5ccc6c(N7CCC(=O)NC7=O)ncnc65)CC4)CC3)cc2)C(C)(C)[C@H]1Oc1ccc(C#N)c2ncccc12` [Example 28, N-((1r,3r)-3-((8-Cyanoquinolin-5-yl)oxy)-2,2,4,4-tetramethylcyclobutyl)-4-(4-((4-(4-(2,4-dioxotetrahydropyrimidin-1(2H)-yl)-7H-pyrrolo[2,3-d]pyrimidin-7-yl)piperidin-1-yl)methyl)piperidin-1-yl)benzamide] belongs no less than 80%; to `CC1(C)[C@H](NC(=O)c2cc(F)c(N3CCC(CN4CCC(n5ncc6c(N7CCC(=O)NC7=O)cccc65)CC4)CC3)c(F)c2)C(C)(C)[C@H]1Oc1ccc(C#N)c2ncccc12` [Example 30, N-((1r,3r)-3-((8-Cyanoquinolin-5-yl)oxy)-2,2,4,4-tetramethylcyclobutyl)-4-(4-((4-(4-(2,4-dioxotetrahydropyrimidin-1(2H)-yl)-1H-indazol-1-yl)piperidin-1-yl)methyl)piperidin-1-yl)-3,5-difluorobenzamide], no less than 80%.
In turn, `CC1(C)[C@H](NC(=O)c2ccc(N3CCC(CN4CCC(n5ccc6c(N7CCC(=O)NC7=O)cc(F)cc65)CC4)CC3)c(F)c2)C(C)(C)[C@H]1Oc1ccc(C#N)c2ncccc12` [Example 32, N-((1r,3r)-3-((8-Cyanoquinolin-5-yl)oxy)-2,2,4,4-tetramethylcyclobutyl)-4-(4-((4-(4-(2,4-dioxotetrahydropyrimidin-1(2H)-yl)-6-fluoro-1H-indol-1-yl)piperidin-1-yl)methyl)piperidin-1-yl)-3-fluorobenzamide] gave a Dmax of no less than 80%.
Same read-out and setting: to `CC1(C)[C@H](NC(=O)c2ccc(N3CCC(CN4CCC(n5ncc6c(N7CCC(=O)NC7=O)nccc65)CC4)CC3)c(F)c2)C(C)(C)[C@H]1Oc1ccc(C#N)c2ncccc12` [Example 39, N-((1r,3r)-3-((8-Cyanoquinolin-5-yl)oxy)-2,2,4,4-tetramethylcyclobutyl)-4-(4-((4-(4-(2,4-dioxotetrahydropyrimidin-1(2H)-yl)-1H-pyrazolo[4,3-c]pyridin-1-yl)piperidin-1-yl)methyl)piperidin-1-yl)-3-fluorobenzamide] belongs no less than 80%; to `CC1(C)[C@H](NC(=O)c2ccc(N3CCC(CN4CCC(n5ccc6c(N7CCC(=O)NC7=O)ncnc65)CC4)CC3)c(F)c2)C(C)(C)[C@H]1Oc1ccc(C#N)c2ncccc12` [Example 47, N-((1r,3r)-3-((8-Cyanoquinolin-5-yl)oxy)-2,2,4,4-tetramethylcyclobutyl)-4-(4-((4-(4-(2,4-dioxotetrahydropyrimidin-1(2H)-yl)-7H-pyrrolo[2,3-d]pyrimidin-7-yl)piperidin-1-yl)methyl)piperidin-1-yl)-3-fluorobenzamide], no less than 80%.
`CC1(C)[C@H](NC(=O)c2ccc(N3CCC(O)(CN4CCC(n5ncc6c(N7CCC(=O)NC7=O)cccc65)CC4)CC3)c(F)c2)C(C)(C)[C@H]1Oc1ccc(C#N)c2ncccc12` [Example 48, N-((1r,3r)-3-((8-Cyanoquinolin-5-yl)oxy)-2,2,4,4-tetramethylcyclobutyl)-4-(4-((4-(4-(2,4-dioxotetrahydropyrimidin-1(2H)-yl)-1H-indazol-1-yl)piperidin-1-yl)methyl)-4-hydroxypiperidin-1-yl)-3-fluorobenzamide] returned a Dmax of no less than 80%.

A further assay concerns Androgen Receptor in human prostate cancer cell lines. As to the kind of experiment: Androgen Receptor Degradation-Imaging Assay, all prostate cancer cell lines (FIG. 2). The class given is cell-based. Conditions: 16 hours treatment. The protocol:
as §1, with “Cells are fixed and permeabilized with 4% formaldehyde, blocked with 10% goat serum in immunofluorescence (IF) buffer (130 mM NaCl, 7 mM Na2HPO4, 3.5 mM NaH2PO4, 7.7 mM NaN3, 0.1% BSA, 0.2% Triton X, 0.05% Tween 20) prior to overnight incubation with rabbit antibody specific for C terminus of AR (commercially available from RevMaB Biosciences).” left out, “Image analysis was performed with Harmony software.” left out
The averaged nuclear Alexa 647 median fluorescence intensity (MFI) of PC3 cells is subtracted from the nuclear Alexa 647 MFI of PROTAC treated and DMSO control treated cells. % AR remaining is calculated for PROTAC treatments as a percent of the DMSO control (MFI PROTAC treated/MFI DMSO control treated)*100). […]
`COc1cc(O[C@H]2C(C)(C)[C@H](NC(=O)c3ccc(N4CCC(CN5CCC(n6ncc7c(N8CCC(=O)NC8=O)nccc76)CC5)CC4)c(F)c3)C2(C)C)ccc1C#N` [Example 20, N-((1r,3r)-3-(4-Cyano-3-methoxyphenoxy)-2,2,4,4-tetramethylcyclobutyl)-4-(4-((4-(4-(2,4-dioxotetrahydropyrimidin-1(2H)-yl)-1H-pyrazolo[4,3-c]pyridin-1-yl)piperidin-1-yl)methyl)piperidin-1-yl)-3-fluorobenzamide]: the “percentage of Androgen Receptor remaining versus concentration (FIG. 2)” value is “Good reductions”.
